This is an account of results in ChEMBL document CHEMBL5705890, “Antitumor activity of an allosteric inhibitor of centromere-associated protein-E” (Proc Natl Acad Sci U S A, 2010).

Data set [1] has as its target Centromere-associated protein E (Homo sapiens) (UniProt Q02224). Put plainly: Uncompetitive-like binding affinity to C-terminal 6-his-tagged CENP-E (2 to 340 residues)(unknown origin) expressed in Escherichia coli BL21(DE3) in presence of ATP.
The test system of data set [2] is HCC1954. Put plainly: Induction of morphological change in human HCC1954 cells expressing GFP-histone 2B assessed as bipolar spindle formation of chromosomes at 0.2 ug/ml measured for 5 days on every 15 mins by PI staining based analysis. The format is functional, cell-based. Particulars: dose 0.2 µg/ml, time 5.0 day.
Data set [3] addresses Centromere-associated protein E (Homo sapiens) (UniProt Q02224). Put plainly: Inhibition of CENP-E motor domain ATPase in human HCC1954 cells assessed as increase in 4n DNA content at 325 nM measured for 144 hrs by flow cytometry. It is filed as cell-based.
Data set [4] has the same target. Put plainly: Inhibition of CENP-E motor domain ATPase in human HCC1954 cells assessed as increase in cyclin B level by Western blot analysis. The format is cell-based.
Data set [5] has the same target. Put plainly: Inhibition of CENP-E motor domain ATPase in human HCC1954 cells assessed as increase in Ser10 phosphorylated histone H3 level by Western blot analysis. It is filed as cell-based. For orientation: In western blotting, separated proteins are transferred to a membrane and probed.
The test system of data set [6] is HCC1954. Put plainly: Induction of apoptosis in human HCC1954 cells assessed as increase in PARP cleavage measured for 145 hrs by Western blot analysis. It is filed as functional, cell-based.
A further data set has as its system SK-OV-3. Put plainly: Induction of morphological change in human SK-OV-3 cells assessed as increase in mitotic cells with bipolar spindle formation of chromosomes at 50 nM measured for 24 to 32 hrs by microscopic analysis. The settings on record: time 24-32 hrs. It is filed as functional, cell-based.
For data set [7], the target named is Centromere-associated protein E (Homo sapiens) (UniProt Q02224). Put plainly: Inhibition of CENP-E motor domain ATPase in human HCC1954 cells expressing GFP-histone 2B assessed as increase in mitotic index at 0.2 ug/ml measured for 5 days on every 15 mins by PI staining based analysis. Particulars: dose 0.2 µg/ml, time 5.0 day. The format is cell-based.
For data set [8], the system named is CC(C)Oc1ccc(C(=O)N[C@H](CNC(=O)CN(C)C)Cc2ccc(-c3cn4cccc([C@H](C)O)c4n3)cc2)cc1Cl. The settings on record: Canis lupus familiaris.
Description: Binding affinity to wild-type dog CENP-E assessed as catalytic constant
The test system is the same in data set [9]. The settings on record: Canis lupus familiaris. The source holds these as a separate data set.
Description: Binding affinity to wild-type dog CENP-E assessed as Km in presence of microtubule
Data set [10] shares this test system. Particulars: Canis lupus familiaris. The source holds these as a separate data set.
Description: Binding affinity to wild-type dog CENP-E assessed as Km in presence of ATP
For data set [11], the target named is Centromere-associated protein E (Homo sapiens) (UniProt Q02224). Put plainly: Competitive-like binding affinity to C-terminal 6-his-tagged CENP-E (2 to 340 residues)(unknown origin) expressed in Escherichia coli BL21(DE3) in presence of ATP.
The target is the same in data set [12]. Put plainly: Binding affinity to C-terminal 6-his-tagged CENP-E (2 to 340 residues)(unknown origin) expressed in Escherichia coli BL21(DE3) photo-exposed for 30 mins by LC-MS analysis.
Data set [13] has as its system CC(C)Oc1ccc(C(=O)N[C@H](CNC(=O)CN(C)C)Cc2ccc(-c3cn4cccc([C@H](C)O)c4n3)cc2)cc1Cl. Particulars: Mus musculus.
Description: Binding affinity to wild-type mouse CENP-E assessed as catalytic constant
The test system is the same in data set [14]. Particulars: Mus musculus. This is another data set of the same source.
Description: Binding affinity to wild-type mouse CENP-E assessed as Km in presence of microtubule
For data set [15] the test system is unchanged. Particulars: Mus musculus. This is another data set of the same source.
Description: Binding affinity to wild-type mouse CENP-E assessed as Km in presence of ATP
Data set [16] addresses Centromere protein E (Canis lupus familiaris) (UniProt A0A8P0P634). Put plainly: Binding affinity to wild-type dog CENP-E assessed as ATPase activity.
The species named for data set [17] is Homo sapiens. Put plainly: Binding affinity to human CENP-E T183A/K184T mutant assessed as ATPase activity.
In data set [18] the test system is COLO 205. Put plainly: Induction of morphological change in human COLO 205 cells xenografted in mouse assessed as appearance of mitotic figures in tumor at 125 mg/kg measured after 24 hrs of single administration by H and E staining based analysis. It is filed as functional, organism-based.
For data set [19], the system named is COLO 205. Put plainly: Induction of morphological change in human COLO 205 cells xenografted in mouse assessed as appearance of scattered apoptotic bodies in tumor at 125 mg/kg measured after 24 hrs of single administration by H and E staining based analysis. The format is functional, organism-based. (In general: A xenograft is tissue or cells of one species grown in another, often human tumour cells in immunodeficient mice.)

Data set [20] deals with COLO 205. Put plainly: Effect on cell cycle distribution in human COLO 205 cells xenografted in mouse assessed as increase in ratio of 4n to 2n nuclei measured after 24 hrs of single administration by flow cytometry. It is filed as functional, cell-based. The settings on record: dose <= 125.0 mg/kg.
The subject of data set [21] is COLO 205. Put plainly: Antitumor activity against human COLO 205 cells xenografted in mouse assessed as reduction in tumor volume administered intraperitoneally three doses daily on 2 consecutive weeks. The format is functional, cell-based. The settings on record: dose 62.5-125 mg/kg, route ip, time 2.0 weeks.
The species named for data set [22] is Homo sapiens.
Description: Binding affinity to human CENP-E T183A/K184T mutant assessed as catalytic constant
For data set [23], the species on record is Homo sapiens. The source holds these as a separate data set.
Description: Binding affinity to human CENP-E T183A/K184T mutant assessed as Km in presence of microtubule
For data set [24], the species on record is Homo sapiens. The source holds these as a separate data set.
Description: Binding affinity to human CENP-E T183A/K184T mutant assessed as Km in presence of ATP
Data set [25] concerns the target Centromere-associated protein E (Homo sapiens) (UniProt Q02224).
Description: Binding affinity to C-terminal 6-his-tagged CENP-E (2 to 340 residues)(unknown origin) expressed in Escherichia coli BL21(DE3) assessed as compound dissociation by measuring t1/2

Active and inactive are the calls of the source. The calls are words filed in the database; no cut-off is given here.

Centromere-associated protein E (Homo sapiens), sequence (Q02224 whole entry, the tested form may be a part): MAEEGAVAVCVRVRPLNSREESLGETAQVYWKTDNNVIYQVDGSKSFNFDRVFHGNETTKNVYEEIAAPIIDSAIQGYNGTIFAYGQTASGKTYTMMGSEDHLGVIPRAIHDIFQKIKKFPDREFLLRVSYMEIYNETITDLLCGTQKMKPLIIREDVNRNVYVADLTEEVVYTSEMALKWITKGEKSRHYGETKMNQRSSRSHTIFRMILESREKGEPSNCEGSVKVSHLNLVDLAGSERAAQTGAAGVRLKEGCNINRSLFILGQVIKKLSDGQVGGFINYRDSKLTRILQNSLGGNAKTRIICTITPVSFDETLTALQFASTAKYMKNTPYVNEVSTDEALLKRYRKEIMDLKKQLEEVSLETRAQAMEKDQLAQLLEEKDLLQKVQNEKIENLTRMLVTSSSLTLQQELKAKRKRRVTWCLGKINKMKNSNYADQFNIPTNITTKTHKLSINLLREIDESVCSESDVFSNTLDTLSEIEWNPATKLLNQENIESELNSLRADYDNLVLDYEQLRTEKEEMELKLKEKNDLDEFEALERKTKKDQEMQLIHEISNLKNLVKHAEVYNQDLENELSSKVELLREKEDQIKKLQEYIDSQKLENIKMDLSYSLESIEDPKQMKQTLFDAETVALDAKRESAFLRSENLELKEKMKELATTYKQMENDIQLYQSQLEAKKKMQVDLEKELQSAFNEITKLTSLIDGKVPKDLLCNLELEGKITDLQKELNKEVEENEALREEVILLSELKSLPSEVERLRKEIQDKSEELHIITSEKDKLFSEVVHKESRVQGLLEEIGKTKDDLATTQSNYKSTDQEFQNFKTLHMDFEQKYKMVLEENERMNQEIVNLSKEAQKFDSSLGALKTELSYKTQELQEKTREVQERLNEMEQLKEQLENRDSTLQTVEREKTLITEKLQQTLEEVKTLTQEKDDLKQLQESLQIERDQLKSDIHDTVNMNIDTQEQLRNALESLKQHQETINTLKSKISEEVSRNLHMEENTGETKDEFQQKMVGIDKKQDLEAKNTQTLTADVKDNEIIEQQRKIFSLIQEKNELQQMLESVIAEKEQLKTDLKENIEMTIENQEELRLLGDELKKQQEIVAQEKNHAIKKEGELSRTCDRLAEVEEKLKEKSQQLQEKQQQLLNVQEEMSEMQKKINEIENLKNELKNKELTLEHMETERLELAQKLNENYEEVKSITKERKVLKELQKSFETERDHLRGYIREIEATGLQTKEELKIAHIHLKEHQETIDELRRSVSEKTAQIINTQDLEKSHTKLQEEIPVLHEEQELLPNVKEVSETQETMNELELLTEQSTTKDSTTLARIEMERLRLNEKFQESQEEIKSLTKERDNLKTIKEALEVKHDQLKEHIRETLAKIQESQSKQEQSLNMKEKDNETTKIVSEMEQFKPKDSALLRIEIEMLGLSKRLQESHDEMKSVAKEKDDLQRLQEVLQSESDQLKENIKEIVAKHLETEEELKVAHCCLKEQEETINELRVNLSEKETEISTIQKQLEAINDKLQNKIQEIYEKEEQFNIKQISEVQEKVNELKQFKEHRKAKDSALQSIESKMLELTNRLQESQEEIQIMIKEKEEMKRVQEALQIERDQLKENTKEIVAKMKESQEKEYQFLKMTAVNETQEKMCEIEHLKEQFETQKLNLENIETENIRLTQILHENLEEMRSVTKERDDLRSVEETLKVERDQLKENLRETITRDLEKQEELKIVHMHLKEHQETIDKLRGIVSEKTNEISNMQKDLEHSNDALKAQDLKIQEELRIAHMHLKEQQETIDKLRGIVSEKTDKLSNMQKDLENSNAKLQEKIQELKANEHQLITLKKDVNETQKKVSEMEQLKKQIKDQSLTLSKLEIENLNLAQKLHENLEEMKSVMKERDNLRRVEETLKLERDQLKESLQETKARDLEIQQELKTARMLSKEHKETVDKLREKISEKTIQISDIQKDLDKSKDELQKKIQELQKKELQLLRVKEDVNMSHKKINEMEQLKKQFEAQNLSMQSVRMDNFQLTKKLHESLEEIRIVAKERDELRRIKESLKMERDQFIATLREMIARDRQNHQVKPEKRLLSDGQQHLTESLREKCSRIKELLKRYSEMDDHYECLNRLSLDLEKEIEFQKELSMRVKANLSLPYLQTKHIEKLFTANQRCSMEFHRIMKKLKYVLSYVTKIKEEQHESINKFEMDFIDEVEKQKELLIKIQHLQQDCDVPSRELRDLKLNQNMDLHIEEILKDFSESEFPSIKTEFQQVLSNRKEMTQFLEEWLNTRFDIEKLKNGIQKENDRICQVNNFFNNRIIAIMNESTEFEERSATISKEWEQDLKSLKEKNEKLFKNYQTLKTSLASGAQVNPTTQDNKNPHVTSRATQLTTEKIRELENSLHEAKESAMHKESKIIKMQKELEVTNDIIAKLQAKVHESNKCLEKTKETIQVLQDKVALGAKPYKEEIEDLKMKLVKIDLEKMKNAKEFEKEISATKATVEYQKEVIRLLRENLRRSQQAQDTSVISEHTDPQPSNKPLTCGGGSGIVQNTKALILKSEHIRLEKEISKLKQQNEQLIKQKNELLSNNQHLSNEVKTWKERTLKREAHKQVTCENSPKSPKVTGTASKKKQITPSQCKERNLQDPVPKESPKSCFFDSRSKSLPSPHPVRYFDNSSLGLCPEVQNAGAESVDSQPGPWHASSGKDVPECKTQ
Centromere protein E (Canis lupus familiaris), sequence (A0A8P0P634 as listed by the source): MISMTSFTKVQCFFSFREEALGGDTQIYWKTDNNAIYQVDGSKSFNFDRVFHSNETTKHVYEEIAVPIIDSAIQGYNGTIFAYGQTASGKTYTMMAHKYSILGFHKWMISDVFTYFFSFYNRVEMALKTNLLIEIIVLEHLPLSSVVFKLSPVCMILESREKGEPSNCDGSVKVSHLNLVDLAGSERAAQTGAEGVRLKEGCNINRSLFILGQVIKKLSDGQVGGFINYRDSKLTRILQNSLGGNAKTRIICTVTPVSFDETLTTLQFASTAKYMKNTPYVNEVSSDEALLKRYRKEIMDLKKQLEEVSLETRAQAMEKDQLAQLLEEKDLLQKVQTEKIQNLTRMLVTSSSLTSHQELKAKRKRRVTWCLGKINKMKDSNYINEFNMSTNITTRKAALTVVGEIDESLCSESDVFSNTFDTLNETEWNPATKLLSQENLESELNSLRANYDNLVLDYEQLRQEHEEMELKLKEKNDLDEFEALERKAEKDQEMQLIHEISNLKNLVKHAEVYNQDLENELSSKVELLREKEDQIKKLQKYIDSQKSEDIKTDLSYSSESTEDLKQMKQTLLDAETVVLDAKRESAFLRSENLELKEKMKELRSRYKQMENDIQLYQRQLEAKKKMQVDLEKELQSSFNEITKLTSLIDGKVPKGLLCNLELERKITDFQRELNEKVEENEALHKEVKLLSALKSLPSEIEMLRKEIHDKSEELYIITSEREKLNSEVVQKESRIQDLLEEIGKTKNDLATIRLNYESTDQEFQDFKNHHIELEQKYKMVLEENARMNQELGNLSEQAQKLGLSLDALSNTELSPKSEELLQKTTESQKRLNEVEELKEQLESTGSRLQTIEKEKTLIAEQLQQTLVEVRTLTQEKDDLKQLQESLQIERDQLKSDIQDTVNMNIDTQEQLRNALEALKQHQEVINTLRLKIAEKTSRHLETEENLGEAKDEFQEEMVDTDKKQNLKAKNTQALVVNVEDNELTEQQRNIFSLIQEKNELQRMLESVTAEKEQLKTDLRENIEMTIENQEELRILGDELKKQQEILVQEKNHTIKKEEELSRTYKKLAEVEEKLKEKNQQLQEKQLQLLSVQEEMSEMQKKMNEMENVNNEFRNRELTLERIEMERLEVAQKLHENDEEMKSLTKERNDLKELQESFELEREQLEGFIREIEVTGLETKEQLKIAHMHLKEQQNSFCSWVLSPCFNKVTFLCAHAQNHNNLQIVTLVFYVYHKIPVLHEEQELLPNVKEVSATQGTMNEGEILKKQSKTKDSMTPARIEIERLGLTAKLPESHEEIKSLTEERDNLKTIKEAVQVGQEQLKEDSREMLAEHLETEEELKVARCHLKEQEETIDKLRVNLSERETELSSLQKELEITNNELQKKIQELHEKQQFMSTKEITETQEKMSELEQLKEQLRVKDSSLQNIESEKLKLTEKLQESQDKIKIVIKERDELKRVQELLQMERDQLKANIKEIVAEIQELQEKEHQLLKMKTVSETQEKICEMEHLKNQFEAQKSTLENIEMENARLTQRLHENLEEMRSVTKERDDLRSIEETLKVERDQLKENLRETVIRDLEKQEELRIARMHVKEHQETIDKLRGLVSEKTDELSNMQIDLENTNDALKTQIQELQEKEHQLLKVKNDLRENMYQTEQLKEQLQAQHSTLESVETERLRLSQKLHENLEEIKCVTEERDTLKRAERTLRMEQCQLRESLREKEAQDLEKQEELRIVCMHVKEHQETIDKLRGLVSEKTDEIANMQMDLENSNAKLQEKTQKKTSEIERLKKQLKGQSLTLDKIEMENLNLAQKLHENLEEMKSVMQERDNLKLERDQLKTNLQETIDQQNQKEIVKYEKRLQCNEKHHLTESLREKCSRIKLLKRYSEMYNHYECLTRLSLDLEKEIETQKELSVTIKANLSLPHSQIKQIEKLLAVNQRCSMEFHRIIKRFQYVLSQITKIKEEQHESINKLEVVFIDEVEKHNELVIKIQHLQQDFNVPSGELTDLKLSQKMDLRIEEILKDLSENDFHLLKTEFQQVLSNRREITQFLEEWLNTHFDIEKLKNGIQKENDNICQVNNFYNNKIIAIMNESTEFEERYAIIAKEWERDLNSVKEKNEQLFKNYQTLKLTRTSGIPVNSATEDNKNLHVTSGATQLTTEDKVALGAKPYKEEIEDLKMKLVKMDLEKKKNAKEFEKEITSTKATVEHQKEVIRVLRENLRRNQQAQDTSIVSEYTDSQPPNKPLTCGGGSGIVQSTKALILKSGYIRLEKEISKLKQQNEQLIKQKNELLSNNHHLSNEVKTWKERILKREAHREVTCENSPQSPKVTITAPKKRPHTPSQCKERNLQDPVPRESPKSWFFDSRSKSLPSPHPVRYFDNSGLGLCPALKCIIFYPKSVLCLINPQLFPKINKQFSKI

Regarding `Cc1cccn2cc(-c3ccc(C[C@@H](CCO)NC(=O)c4ccc(OC(C)C)c(C#N)c4)cc3)nc12`, the alphaKi in [1] is 0.25 nM. Besides, the result in the data set with HCC1954 [2], in the data set with HCC1954 [6] and with SK-OV-3 was Active. Besides, the inhibition result in [3], in [4], in [5] and in data set [7] was “Active” throughout.

The term kcat denotes the maximal rate divided by the concentration of active sites. One may read the Km as the substrate concentration at which the rate is half of its maximum. Take “Centromere protein E (Canis lupus familiaris), A0A8P0P634”: in data set [8], the kcat turned out to be 11.1 s⁻¹. For the same compound, the figures for the Km in data set [9] and in data set [10] were 0.38 µM and 34 µM, respectively.

Turning to `CNC(=O)C(Cc1ccc(C(=O)c2ccccc2)cc1)NC(=O)c1ccc(OC(C)C)c(Cl)c1` (stereo unspecified), the alphaKi in data set [11] is 8 nM. In addition, the result in [12] was Active.

For the compound “Centromere-associated protein E (Mus musculus), Q6RT24”, the kcat in [13] turned out to be 10.1 s⁻¹. Also, the Km in [14] worked out at 0.55 µM; in [15] it was 25 µM.

Take `CC(C)Oc1ccc(C(=O)N[C@H](CNC(=O)CN(C)C)Cc2ccc(-c3cn4cccc([C@H](C)O)c4n3)cc2)cc1Cl`: the Activity in data set [16] was 0.32 s⁻¹; in the data set filed under Homo sapiens [17], 0.06 s⁻¹; with COLO 205 [20], “Dose-Dependent Effect”; with COLO 205 [21], “Dose-Dependent Effect”. The result with COLO 205 [18] and with COLO 205 [19] was Active. Also, in the data set filed under Homo sapiens [22], the kcat came out at 12.1 s⁻¹. Moreover, the Km in the data set listed under Homo sapiens [23] turned out to be 1.81 µM; in the data set filed under Homo sapiens [24], 20 µM. The compound further had a T1/2 in data set [25] of 10.2 h.
